US6716411B2, “Method for finding nucleotide synthesis inhibitors having fewer side effects” (Aventis Pharma Deustschland GmbH, priority 1999, dated 2004)
Values joined by “and” are separate entries in the source; they are usually repeats but may differ in a detail not shown here. Equal values may be shown once. Read-outs that look alike come from different tables or passages of the source. Marks after values point to notes of the source that are not given here.

How the values were obtained:
[1] = Tolerability of constant (mini-infusion pump) versus pulse-like (oral) blood levels (Example 5); type: in vivo, rat; conditions: male, Lewis, rat, plasma, subcutaneous, read-out: Compound 1 blood plasma level (day 27)
Procedure: (§1) In order to attain constant blood levels, a mini-infusion pump was subcutaneously implanted into experimental animals. The mini-infusion pumps contained 2 ml of a 15% strength ethanolic solution of compound 1, which was continuously released over 28 days. Doses of 2.5, 5, 10 and 25 mg/kg/day were employed. For comparison, animals which received the same daily doses of the compound 1, but administered orally, were implanted with mini-infusion pumps; these, however, were filled with only the vehicle (15% ethanol in water). A 1% strength CMC was additionally administered orally to animals which received the compound 1 via mini-infusion pumps. The survival of the animals was taken as a course parameter. Additionally, blood was taken on day 5 and day 27 in order to determine the blood levels of compound 1. Blood was taken from animals 4 hours after oral administration of compound 1. The group was comprised of 6 male Lewis rats having a body weight of approximately 210 g. Corresponding to the preceding experiments, adjuvant arthritis was induced in the animals on day 5.
(§2) For the attainment of constant blood levels of compound 1, the animals were implanted subcutaneously with a mini-infusion pump which supplied compound 1 to the animals continuously for 28 days. By means of this pump, constant blood levels of compound 1 were attained. Thus long half-lives of compound 1, such as are observed in humans, were simulated.
(§3) For the comparison group, animals were treated with the identical daily dose of compound 1, but received the substance orally rather than by mini-infusion pump.
(§4) In this experiment, the tolerability of the compound 1 with a short half-life (compound 1 orally administered) was compared with the tolerability of the compound 1 with a long half-life (compound 1 by pump with a constant infinite half-life). The doses employed were 2.5 mg/kg/day, 5 mg/kg/day, 10 mg/kg/day and 25 mg/kg/day. The number of animals surviving the treatment was used as a measure of the tolerability. The tolerability was moreover compared with respect to the observed blood levels.

[2] = system: Lewis rats; assay: as above; type: in vivo, rat
Procedure: as §1, §2, §3, §4

[3] = Half-life in the blood plasma of humans; type: in vivo; conditions: human
Procedure: The measurement is determined by calculating the half-life of a nucleotide synthesis inhibitor in the blood of a mammal, which is relevant for pharmacokinetic ratios in humans, or in humans in phase I clinical trial development, and comparing it with that of a known nucleotide synthesis inhibitor. The term “half-life” is understood as meaning the time in which the concentration of the nucleotide synthesis inhibitor in the blood plasma is halved. This invention for finding nucleotide synthesis inhibitors which have lower side effects therefore includes

Question: Which results are given for `C/C(O)=C(\C#N)C(=O)Nc1ccc(C(F)(F)F)cc1` [compound 1, N-(4-trifluoromethylphenyl)-2-cyano-3-hydroxycrotonamide]?
Answer: concentration at 27 day ([1]; 2.5 mg/kg/day mini-infusion): 2340 ng/mL; concentration at 27 day ([1]; 5 mg/kg/day mini-infusion): 4180 ng/mL; concentration at 27 day ([1]; 10 mg/kg/day mini-infusion): 6720 ng/mL; Body weight increase ([2]; 2.5 mg/kg/day mini-infusion): +22%; Compound 1 blood plasma level (day 5) ([2]; 2.5 mg/kg/day mini-infusion): 2.05 μg/ml ±; Compound 1 blood plasma level (day 27) ([2]; 2.5 mg/kg/day mini-infusion): 2.34 μg/ml ±; Surviving animals ([2]; 2.5 mg/kg/day mini-infusion): 100%; Body weight increase ([2]; 2.5 mg/kg/day p.o.): +29%; Surviving animals ([2]; 2.5 mg/kg/day p.o.): 100%; Body weight increase ([2]; 5 mg/kg/day mini-infusion): +26%; Compound 1 blood plasma level (day 5) ([2]; 5 mg/kg/day mini-infusion): 3.57 μg/ml ±; Compound 1 blood plasma level (day 27) ([2]; 5 mg/kg/day mini-infusion): 4.18 μg/ml ±; Surviving animals ([2]; 5 mg/kg/day mini-infusion): 100%; Body weight increase ([2]; 5 mg/kg/day p.o.): +25%; Surviving animals ([2]; 5 mg/kg/day p.o.): 100%; Compound 1 blood plasma level (day 5) ([2]; 5 mg/kg/day p.o., 4 hours after oral administration): 14.31 µg/µg/mL; Body weight increase ([2]; 10 mg/kg/day mini-infusion): +29%; Compound 1 blood plasma level (day 5) ([2]; 10 mg/kg/day mini-infusion): 4.55 μg/ml ±; Compound 1 blood plasma level (day 27) ([2]; 10 mg/kg/day mini-infusion): 6.72 μg/ml ±; Surviving animals ([2]; 10 mg/kg/day mini-infusion): 100%; Body weight increase ([2]; 10 mg/kg/day p.o.): +27%; Surviving animals ([2]; 10 mg/kg/day p.o.): 100%; Compound 1 blood plasma level (day 27) ([2]; 10 mg/kg/day p.o., 4 hours after oral administration): 34.35 μg/ml and 34.35 μg/ μg/ml; Surviving animals ([2]; 25 mg/kg/day mini-infusion): 17%; blood plasma levels, extrapolated from the values at lower doses ([2]; 25 mg/kg/day mini-infusion pump): ≤ 15 µg/mL; Body weight increase ([2]; 25 mg/kg/day mini-infusion, determined in one surviving animal only): +13%*; survival ([2]; 25 mg/kg/day orally administered): all animals; Body weight increase ([2]; 25 mg/kg/day p.o.): −2%; Surviving animals ([2]; 25 mg/kg/day p.o.): 100%; half-life [3]: ≤ 14.6 days; half-life ([3]; approximately): ~14 days
